Measured values published in article PMC7035334, “Effects of SDS on the activity and conformation of protein tyrosine phosphatase from thermus thermophilus HB27” (Scientific Reports, 2020).

Biological target: T1, PTPase from thermus thermophilus HB27 (Thermus thermophilus, UniProt Q72JF6)
T1 construct: gene TT_C0816; recombinant, cloned into pET-28a(+), E. coli BL21(DE3), purified; LMW PTPase EC 3.1.3.48; P-loop CLGNICRS, residues Cys11, Cys16, Arg17, Asp123 (Tt1001)
T1 sequence (Q72JF6 1-161): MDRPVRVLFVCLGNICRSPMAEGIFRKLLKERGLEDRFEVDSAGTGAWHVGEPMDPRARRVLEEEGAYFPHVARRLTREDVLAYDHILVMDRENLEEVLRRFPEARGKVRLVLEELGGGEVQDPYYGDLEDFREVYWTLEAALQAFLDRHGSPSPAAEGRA
Test: residual pNPP phosphatase activity, absorbance […] nm
Assay type: biochemical

CCCCCCCCCCCCOS(=O)(=O)O [SDS]
IC50: 11.3 µM
